Data as given in ChEMBL document CHEMBL1154652, “N-(4-(6,7-Disubstituted-quinolin-4-yloxy)-3-fluorophenyl)-2-oxo-3-phenylimidazolidine-1-carboxamides: a novel series of dual c-Met/VEGFR2 receptor tyrosine kinase inhibitors” (Bioorg Med Chem Lett, 2009).
Calls of active or inactive are those of the source. The calls are words filed in the database; no cut-off is given here.

Key:
[1] = molecular target: T1, Hepatocyte growth factor receptor (Homo sapiens, UniProt P08581); assay: Inhibition of GST-tagged c-Met expressed in Sf9 cells
Target sequence in this assay (P08581 whole entry): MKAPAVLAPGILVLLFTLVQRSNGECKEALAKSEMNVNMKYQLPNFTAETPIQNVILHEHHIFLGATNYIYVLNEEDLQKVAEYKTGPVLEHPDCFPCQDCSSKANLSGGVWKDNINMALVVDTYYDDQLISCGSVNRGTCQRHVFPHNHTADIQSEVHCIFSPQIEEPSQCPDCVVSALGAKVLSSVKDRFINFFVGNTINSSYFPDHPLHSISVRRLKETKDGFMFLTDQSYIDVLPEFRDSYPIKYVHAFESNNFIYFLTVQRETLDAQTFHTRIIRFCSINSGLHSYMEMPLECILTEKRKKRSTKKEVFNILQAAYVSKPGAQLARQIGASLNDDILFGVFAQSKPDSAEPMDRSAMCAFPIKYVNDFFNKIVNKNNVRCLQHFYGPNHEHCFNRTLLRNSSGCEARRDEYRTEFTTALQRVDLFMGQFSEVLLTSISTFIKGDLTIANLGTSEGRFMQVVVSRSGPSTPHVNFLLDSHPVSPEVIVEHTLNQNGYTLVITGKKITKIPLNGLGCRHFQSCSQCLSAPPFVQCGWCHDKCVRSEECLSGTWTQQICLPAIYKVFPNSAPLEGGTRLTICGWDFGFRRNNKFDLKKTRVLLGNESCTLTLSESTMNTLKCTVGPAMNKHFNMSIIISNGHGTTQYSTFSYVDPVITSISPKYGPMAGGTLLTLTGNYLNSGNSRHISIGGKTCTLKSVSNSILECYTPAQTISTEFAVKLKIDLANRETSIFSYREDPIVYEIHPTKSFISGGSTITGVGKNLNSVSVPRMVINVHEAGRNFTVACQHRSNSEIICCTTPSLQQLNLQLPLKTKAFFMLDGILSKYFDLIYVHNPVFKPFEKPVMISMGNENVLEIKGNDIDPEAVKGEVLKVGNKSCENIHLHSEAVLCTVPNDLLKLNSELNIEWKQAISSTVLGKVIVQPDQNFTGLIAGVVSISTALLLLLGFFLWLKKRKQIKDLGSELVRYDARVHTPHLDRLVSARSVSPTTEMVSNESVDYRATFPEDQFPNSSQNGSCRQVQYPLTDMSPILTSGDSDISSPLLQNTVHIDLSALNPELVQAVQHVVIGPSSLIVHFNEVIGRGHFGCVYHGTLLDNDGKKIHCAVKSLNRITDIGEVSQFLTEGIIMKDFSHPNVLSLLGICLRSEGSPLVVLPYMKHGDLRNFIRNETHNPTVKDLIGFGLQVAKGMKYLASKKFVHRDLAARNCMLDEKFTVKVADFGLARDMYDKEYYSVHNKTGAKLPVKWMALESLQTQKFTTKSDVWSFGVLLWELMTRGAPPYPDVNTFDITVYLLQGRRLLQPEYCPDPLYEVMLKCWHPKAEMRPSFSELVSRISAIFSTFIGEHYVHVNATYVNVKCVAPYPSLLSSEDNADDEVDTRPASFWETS

[2] = Inhibition of GST-tagged VEGFR expressed in Sf9 cells
[3] = molecular target: T1, Hepatocyte growth factor receptor; assay: Inhibition of TPR-Met assessed as autophosphorylation
Target sequence in this assay (P08581 25-1390 limits assumed): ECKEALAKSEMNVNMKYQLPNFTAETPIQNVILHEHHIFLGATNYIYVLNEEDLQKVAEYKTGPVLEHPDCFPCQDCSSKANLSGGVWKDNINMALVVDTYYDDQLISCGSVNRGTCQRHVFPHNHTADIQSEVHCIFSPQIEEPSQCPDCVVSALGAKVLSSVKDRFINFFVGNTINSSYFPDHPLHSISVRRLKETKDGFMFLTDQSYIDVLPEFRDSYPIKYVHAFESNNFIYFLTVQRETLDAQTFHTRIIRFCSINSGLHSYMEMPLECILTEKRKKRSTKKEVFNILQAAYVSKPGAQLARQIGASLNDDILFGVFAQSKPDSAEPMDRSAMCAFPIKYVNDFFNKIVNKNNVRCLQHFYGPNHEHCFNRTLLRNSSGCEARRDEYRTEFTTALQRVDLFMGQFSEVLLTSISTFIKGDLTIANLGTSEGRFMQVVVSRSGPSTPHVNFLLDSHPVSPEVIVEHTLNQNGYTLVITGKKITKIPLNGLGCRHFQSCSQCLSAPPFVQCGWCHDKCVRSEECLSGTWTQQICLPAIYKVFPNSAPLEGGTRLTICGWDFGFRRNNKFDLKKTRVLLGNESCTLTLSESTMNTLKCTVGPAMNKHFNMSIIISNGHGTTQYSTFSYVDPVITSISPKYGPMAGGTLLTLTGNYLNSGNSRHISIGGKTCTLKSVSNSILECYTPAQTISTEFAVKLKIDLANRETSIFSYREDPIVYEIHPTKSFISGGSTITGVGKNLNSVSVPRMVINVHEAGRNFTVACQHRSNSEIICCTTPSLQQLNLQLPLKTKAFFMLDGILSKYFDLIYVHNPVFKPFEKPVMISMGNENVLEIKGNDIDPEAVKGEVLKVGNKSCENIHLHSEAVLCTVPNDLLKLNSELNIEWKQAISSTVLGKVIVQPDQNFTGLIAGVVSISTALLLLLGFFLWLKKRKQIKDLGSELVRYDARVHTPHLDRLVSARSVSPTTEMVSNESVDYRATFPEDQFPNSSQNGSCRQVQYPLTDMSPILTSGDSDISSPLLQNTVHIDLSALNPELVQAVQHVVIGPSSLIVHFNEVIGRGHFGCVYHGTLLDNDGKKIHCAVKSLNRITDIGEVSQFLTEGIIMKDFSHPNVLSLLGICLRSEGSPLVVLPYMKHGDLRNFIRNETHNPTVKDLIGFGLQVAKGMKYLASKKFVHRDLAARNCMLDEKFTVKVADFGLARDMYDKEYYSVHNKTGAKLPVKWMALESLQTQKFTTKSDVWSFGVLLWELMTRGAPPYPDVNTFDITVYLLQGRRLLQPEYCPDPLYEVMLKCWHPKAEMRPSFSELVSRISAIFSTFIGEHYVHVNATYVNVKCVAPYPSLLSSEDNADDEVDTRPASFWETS

[4] = Half life in rat; assay type: ADME, organism-based; settings: in vivo
[5] = Bioavailability in rat; assay type: ADME, organism-based; settings: in vivo
[6] = Inhibition of VEGF-induced ERK phosphorylation in HUVEC; assay type: cell-based; settings: Homo sapiens
HUVEC [7] = assay: Inhibition of VEGF-stimulated proliferation of HUVEC cells; assay type: functional, cell-based; settings: Homo sapiens
HUVEC [8] = assay: Antiangiogenic activity against HUVEC cell assessed as inhibition of tubule formation; assay type: functional, cell-based; settings: Homo sapiens
HUVEC [9] = assay: Antiangiogenic activity against HUVEC cell assessed as inhibition of VEGF-dependent tubule formation; assay type: functional, Homo sapiens
[10] = molecular target: ALK tyrosine kinase receptor (Homo sapiens) (UniProt Q9UM73); assay: Inhibition of ALK at 100 uM
[11] = molecular target: Aurora kinase A (Homo sapiens) (UniProt O14965); assay: Inhibition of Aurora A at 100 uM
Sequence of Aurora kinase A (Homo sapiens) (O14965 whole entry): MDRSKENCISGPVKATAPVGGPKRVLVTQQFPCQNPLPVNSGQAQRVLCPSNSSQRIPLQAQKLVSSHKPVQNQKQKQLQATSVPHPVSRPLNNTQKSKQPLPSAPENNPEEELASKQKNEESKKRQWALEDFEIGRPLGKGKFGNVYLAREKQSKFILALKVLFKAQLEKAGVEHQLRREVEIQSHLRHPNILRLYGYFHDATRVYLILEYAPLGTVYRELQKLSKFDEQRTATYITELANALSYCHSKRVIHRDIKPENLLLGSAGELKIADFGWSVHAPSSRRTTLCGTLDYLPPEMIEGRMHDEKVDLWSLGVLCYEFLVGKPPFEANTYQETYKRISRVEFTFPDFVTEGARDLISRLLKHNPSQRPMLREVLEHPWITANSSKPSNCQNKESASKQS

[12] = molecular target: Cyclin-dependent kinase 2/cyclin E (Homo sapiens) (UniProt P24864+P24941+O96020); assay: Inhibition of CDK2/cyclin E at 100 uM; assay type: protein-complex assay
[13] = molecular target: Serine/threonine-protein kinase Chk1 (Homo sapiens) (UniProt O14757); assay: Inhibition of CHK1 at 100 uM
[14] = molecular target: Serine/threonine-protein kinase Chk2 (Homo sapiens) (UniProt O96017); assay: Inhibition of CHK2 at 100 uM
[15] = molecular target: Mast/stem cell growth factor receptor Kit (Homo sapiens) (UniProt P10721); assay: Inhibition of c-kit at 100 uM
[16] = molecular target: RAF proto-oncogene serine/threonine-protein kinase (Homo sapiens) (UniProt P04049); assay: Inhibition of c-Raf at 100 uM
Sequence of RAF proto-oncogene serine/threonine-protein kinase (Homo sapiens) (P04049 whole entry): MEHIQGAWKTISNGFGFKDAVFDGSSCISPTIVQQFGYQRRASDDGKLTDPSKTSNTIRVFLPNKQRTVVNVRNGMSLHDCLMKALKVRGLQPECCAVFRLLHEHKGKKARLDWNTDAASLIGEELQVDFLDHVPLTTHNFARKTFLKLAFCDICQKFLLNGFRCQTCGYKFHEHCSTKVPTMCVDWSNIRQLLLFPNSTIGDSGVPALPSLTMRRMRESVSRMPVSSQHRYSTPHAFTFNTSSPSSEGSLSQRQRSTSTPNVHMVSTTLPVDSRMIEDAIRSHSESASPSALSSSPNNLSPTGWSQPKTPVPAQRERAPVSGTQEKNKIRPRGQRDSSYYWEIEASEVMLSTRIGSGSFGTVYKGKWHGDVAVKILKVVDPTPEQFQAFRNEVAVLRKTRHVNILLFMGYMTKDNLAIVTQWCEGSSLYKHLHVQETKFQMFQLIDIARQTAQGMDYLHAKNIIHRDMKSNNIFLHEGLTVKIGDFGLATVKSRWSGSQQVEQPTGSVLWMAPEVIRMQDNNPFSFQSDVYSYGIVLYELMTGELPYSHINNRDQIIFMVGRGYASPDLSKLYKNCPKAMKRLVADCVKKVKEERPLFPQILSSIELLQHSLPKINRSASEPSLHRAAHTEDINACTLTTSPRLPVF

[17] = molecular target: Proto-oncogene tyrosine-protein kinase Src (Homo sapiens) (UniProt P12931); assay: Inhibition of c-SRC at 100 uM
[18] = molecular target: Epidermal growth factor receptor (Homo sapiens) (UniProt P00533); assay: Inhibition of EGFR at 100 uM
[19] = molecular target: Fibroblast growth factor receptor 1 (Homo sapiens) (UniProt P11362); assay: Inhibition of FGFR1 at 100 uM
[20] = molecular target: Receptor-type tyrosine-protein kinase FLT3 (Homo sapiens) (UniProt P36888); assay: Inhibition of Flt3 at 100 uM
[21] = molecular target: Glycogen synthase kinase-3 beta (Homo sapiens) (UniProt P49841); assay: Inhibition of GSK3-beta at 100 uM
[22] = molecular target: Inhibitor of nuclear factor kappa-B kinase subunit beta (Homo sapiens) (UniProt O14920); assay: Inhibition of IKK-beta at 100 uM
[23] = molecular target: Tyrosine-protein kinase JAK2 (Homo sapiens) (UniProt O60674); assay: Inhibition of JAK2 at 100 uM
[24] = molecular target: Tyrosine-protein kinase JAK3 (Homo sapiens) (UniProt P52333); assay: Inhibition of JAK3 at 100 uM
[25] = molecular target: Dual specificity mitogen-activated protein kinase kinase 1 (Homo sapiens) (UniProt Q02750); assay: Inhibition of MEK1 at 100 uM
[26] = molecular target: T1, Hepatocyte growth factor receptor; assay: Inhibition of Met at 100 uM
Target sequence in this assay (P08581 whole entry): as the sequence (P08581 whole entry) above

[27] = molecular target: Platelet-derived growth factor receptor alpha (Homo sapiens) (UniProt P16234); assay: Inhibition of PDGFRalpha at 100 uM
[28] = molecular target: Platelet-derived growth factor receptor beta (Homo sapiens) (UniProt P09619); assay: Inhibition of PDGFRbeta at 100 uM
[29] = molecular target: RAC-alpha serine/threonine-protein kinase (Homo sapiens) (UniProt P31749); assay: Inhibition of PKBalpha at 100 uM
[30] = molecular target: Proto-oncogene tyrosine-protein kinase receptor Ret (Homo sapiens) (UniProt P07949); assay: Inhibition of Ret at 100 uM
[31] = molecular target: Macrophage-stimulating protein receptor (Homo sapiens) (UniProt Q04912); assay: Inhibition of Ron at 100 uM
[32] = molecular target: Angiopoietin-1 receptor (Homo sapiens) (UniProt Q02763); assay: Inhibition of Tie-2 at 100 uM
Sequence of Angiopoietin-1 receptor (Homo sapiens) (Q02763 whole entry): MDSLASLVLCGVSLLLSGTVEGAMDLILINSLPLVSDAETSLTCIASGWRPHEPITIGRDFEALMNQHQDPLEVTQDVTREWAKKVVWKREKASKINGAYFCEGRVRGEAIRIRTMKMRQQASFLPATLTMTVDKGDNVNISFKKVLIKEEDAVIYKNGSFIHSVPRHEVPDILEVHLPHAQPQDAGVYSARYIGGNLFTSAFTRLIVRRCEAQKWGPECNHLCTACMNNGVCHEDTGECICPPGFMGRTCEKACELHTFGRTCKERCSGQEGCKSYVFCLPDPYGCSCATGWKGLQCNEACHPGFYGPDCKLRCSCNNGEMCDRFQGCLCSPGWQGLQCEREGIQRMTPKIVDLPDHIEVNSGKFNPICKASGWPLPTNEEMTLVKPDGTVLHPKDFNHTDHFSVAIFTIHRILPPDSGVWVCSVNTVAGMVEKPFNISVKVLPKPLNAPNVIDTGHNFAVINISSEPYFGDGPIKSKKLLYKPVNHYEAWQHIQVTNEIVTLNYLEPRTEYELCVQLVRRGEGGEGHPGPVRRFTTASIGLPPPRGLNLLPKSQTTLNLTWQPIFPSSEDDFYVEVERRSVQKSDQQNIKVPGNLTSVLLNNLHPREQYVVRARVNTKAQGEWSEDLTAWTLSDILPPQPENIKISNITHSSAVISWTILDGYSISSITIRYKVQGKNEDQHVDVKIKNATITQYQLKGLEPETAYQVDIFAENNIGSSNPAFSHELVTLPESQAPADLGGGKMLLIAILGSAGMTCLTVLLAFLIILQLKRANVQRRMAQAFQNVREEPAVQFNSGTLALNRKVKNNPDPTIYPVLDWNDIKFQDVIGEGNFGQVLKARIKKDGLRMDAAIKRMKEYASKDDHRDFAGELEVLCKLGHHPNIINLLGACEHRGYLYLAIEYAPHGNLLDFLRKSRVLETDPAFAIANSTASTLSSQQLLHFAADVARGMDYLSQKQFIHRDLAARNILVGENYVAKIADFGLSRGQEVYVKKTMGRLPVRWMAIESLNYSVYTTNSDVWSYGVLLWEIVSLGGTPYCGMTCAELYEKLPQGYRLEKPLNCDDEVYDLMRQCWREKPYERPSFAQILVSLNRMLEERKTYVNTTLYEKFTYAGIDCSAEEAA

[33] = molecular target: High affinity nerve growth factor receptor (Homo sapiens) (UniProt P04629); assay: Inhibition of TrkA at 100 uM
[34] = molecular target: Vascular endothelial growth factor receptor 1 (Homo sapiens) (UniProt P17948); assay: Inhibition of VEGFR1 at 100 uM
[35] = molecular target: Vascular endothelial growth factor receptor 2 (Homo sapiens) (UniProt P35968); assay: Inhibition of VEGFR2 at 100 uM
[36] = molecular target: Vascular endothelial growth factor receptor 3 (Homo sapiens) (UniProt P35916); assay: Inhibition of VEGFR3 at 100 uM
MKN-45 = assay: Antiproliferative activity against human MKN45 cells after 72 hrs by MTT assay; assay type: functional, cell-based; settings: MKN-45, 72 h
HCT-116 = assay: Antiproliferative activity against human HCT116 cells after 72 hrs by MTT assay; assay type: functional, cell-based; settings: HCT-116, 72 h
HMEC = assay: Antiproliferative activity against human HMEC cells after 72 hrs by MTT assay; assay type: functional, cell-based
HOS-TE85 = assay: Antitumor activity against human MNNG-HOS cell xenografted mouse assessed as tumor regression at 40 mg/kg, po after 12 days; assay type: functional, organism-based; set-up: dose 40 mg/kg

COc1cc2c(Oc3ccc(NC(=O)N4CCN(c5ccccc5)C4=O)cc3F)ccnc2cc1OCC1CCN(C)CC1
IC50 [1]: 50 nM
IC50 [2]: 20 nM
IC50 ([3]; read-out: IC50): 130 nM

COc1cc2nccc(Oc3ccc(NC(=O)N4CCN(c5ccc(F)cc5)C4=O)cc3)c2cc1OC
IC50 [1]: 50 nM
IC50 [2]: 30 nM
IC50 ([3]; read-out: IC50): 150 nM

Cn1cnc(-c2cc3nccc(Oc4ccc(NC(=O)N5CCN(c6ccccc6)C5=O)cc4F)c3s2)c1
IC50 [2]: 8 nM

COc1cc2nccc(Oc3ccc(NC(=O)N4CCN(c5ccccc5F)C4=O)cc3F)c2cc1OC
IC50 [1]: 60 nM
IC50 [2]: 20 nM
IC50 ([3]; read-out: IC50): 370 nM

COc1cc2nccc(Oc3ccc(NC(=O)N4CCN(c5cccc(F)c5)C4=O)cc3F)c2cc1OC
IC50 [1]: 50 nM
IC50 [2]: 15 nM
IC50 ([3]; read-out: IC50): 200 nM

COc1cc2ncnc(Oc3ccc(NC(=O)N4CCN(c5ccccc5)C4=O)cc3F)c2cc1OC
IC50 [1]: 40 nM
IC50 [2]: 30 nM
IC50 ([3]; read-out: IC50): > 1000 nM

COc1cc2nccc(N(C)c3ccc(NC(=O)N4CCN(c5ccccc5)C4=O)cc3F)c2cc1OC
IC50 [1]: 400 nM
IC50 [2]: 5900 nM
IC50 [3]: Not Active

C=CCN1CCN(C(=O)Nc2ccc(Oc3ccnc4cc(OC)c(OC)cc34)c(F)c2)C1=O
IC50 [1]: 200 nM
IC50 [2]: 630 nM
IC50 [3]: Not Active

COc1cc2ncnc(Nc3ccc(NC(=O)N4CCN(c5ccccc5)C4=O)cc3F)c2cc1OC
IC50 [1]: 600 nM
IC50 [2]: > 2000 nM
IC50 ([3]; read-out: IC50): 3300 nM

COc1cc2nccc(Sc3ccc(NC(=O)N4CCN(c5ccc(F)cc5)C4=O)cc3)c2cc1OC
IC50 [1]: 40 nM
IC50 [2]: 100 nM
IC50 ([3]; read-out: IC50): 80 nM

COc1cc2nccc(Oc3ccc(NC(=O)N4CCN(c5ccncc5)C4=O)cc3F)c2cc1OC
IC50 [1]: 100 nM
IC50 [2]: 600 nM
IC50 ([3]; read-out: IC50): 630 nM

COc1cc2nccc(Oc3ccc(NC(=O)N4CCN(c5ccccn5)C4=O)cc3F)c2cc1OC
IC50 [1]: 40 nM
IC50 [2]: 230 nM
IC50 [3]: Not Active

COc1cc2c(Oc3ccc(NC(=O)N4CCN(c5ccccc5)C4=O)cc3F)ccnc2cc1OCC1CCNCC1
IC50 [1]: 40 nM
IC50 [2]: 20 nM
IC50 ([3]; read-out: IC50): 80 nM

COc1cc2nccc(Oc3ccc(NC(=S)NC(=O)Cc4ccccc4)cc3F)c2cc1OC
IC50 [2]: 32 nM

COc1cc2nccc(Oc3ccc(NC(=O)N4CCN(c5ccccc5)C4=O)c(F)c3)c2cc1OC
IC50 [1]: 30 nM
IC50 [2]: 50 nM
IC50 ([3]; read-out: IC50): > 10000 nM

COc1cc2nccc(Oc3ccc(NC(=O)N4CCN(c5ccccc5)C4=O)cn3)c2cc1OC
IC50 [1]: 60 nM
IC50 [2]: 1300 nM
IC50 ([3]; read-out: IC50): 5000 nM

COc1cc2nccc(Oc3ccc(NC(=O)N4CCN(C5CCCCC5)C4=O)cc3F)c2cc1OC
IC50 [1]: 110 nM
IC50 [2]: 210 nM
IC50 ([3]; read-out: IC50): 860 nM

COc1cc2nccc(Oc3ccc(NC(=O)N4CCN(c5ccccc5)C4=O)nc3)c2cc1OC
IC50 [1]: 30 nM
IC50 [2]: 20 nM
IC50 ([3]; read-out: IC50): > 10000 nM

COc1cc2nccc(Oc3ccc(NC(=O)N4CCN(c5ccccc5)C4=O)cc3F)c2cc1OC
IC50 [2]: 10 nM
IC50 ([3]; read-out: IC50): 90 nM
half-life [4]: 4.4 h
bioavailability [5]: 22%
IC50 [6]: < 1 nM
IC50 (HUVEC [7]): 2 nM
IC50 (HUVEC [8]): 8 nM
inhibition (INH) (HUVEC [9]): 99.4%
inhibition [10]: 0%
inhibition [11]: 0%
inhibition [12]: 0%
inhibition [13]: 0%
inhibition [14]: 1%
inhibition [15]: 12%
inhibition [16]: 42%
inhibition [17]: 7%
inhibition [18]: 0%
inhibition [19]: 11%
inhibition [20]: 72%
inhibition [21]: 0%
inhibition [22]: 0%
inhibition [23]: 4%
inhibition [24]: 6%
inhibition [25]: 0%
inhibition [26]: 100%
inhibition [27]: 26%
inhibition [28]: 6%
inhibition [29]: 0%
inhibition [30]: 96%
inhibition [31]: 92%
inhibition [32]: 23%
inhibition [33]: 94%
inhibition [34]: 100%
inhibition [35]: 92%
inhibition [36]: 93%
IC50 (MKN-45): 8 nM
IC50 (HCT-116): 300 nM
IC50 (HMEC): > 2500 nM
Activity (HOS-TE85): Active

COc1cc2nccc(Oc3ccc(NC(=O)N4CCN(N5CCCCC5)C4=O)cc3F)c2cc1OC
IC50 [1]: 60 nM
IC50 [2]: 370 nM
IC50 ([3]; read-out: IC50): 640 nM

COc1cc2nccc(Oc3ccc(NC(=O)N4CCN(c5ccc(F)cc5)C4=O)cc3F)c2cc1OCCCN1CCOCC1
IC50 [1]: 40 nM
IC50 [2]: 120 nM
IC50 ([3]; read-out: IC50): 30 nM

Cn1cnc(-c2cc3nccc(Oc4ccc(NC(=S)NC(=O)Cc5ccccc5)cc4F)c3s2)c1
IC50 [2]: 26 nM

COc1cc2nccc(Oc3ccc(NC(=O)N4CCN(c5ccc(F)cc5)C4=O)cc3F)c2cc1OC
IC50 [1]: 30 nM
IC50 [2]: 20 nM
IC50 ([3]; read-out: IC50): 90 nM

COCCOc1cc2nccc(Oc3ccc(NC(=O)N4CCN(c5ccccc5)C4=O)cc3F)c2cc1OCCOC
IC50 [1]: 60 nM
IC50 [2]: 40 nM
IC50 ([3]; read-out: IC50): 20 nM

COc1cc2c(Oc3ccc(NC(=O)N4CCN(c5ccccc5)C4=O)cc3F)ccnc2cc1OCCCN1CCOCC1
IC50 [1]: 50 nM
IC50 [2]: 30 nM
IC50 ([3]; read-out: IC50): 50 nM

COc1cc2nccc(Nc3ccc(NC(=O)N4CCN(c5ccccc5)C4=O)cc3F)c2cc1OC
IC50 [1]: 200 nM
IC50 [2]: 1400 nM
IC50 [3]: Not Active

COc1cc2nccc(Oc3ccc(NC(=O)N4CCN(c5ccccc5OC)C4=O)cc3F)c2cc1OC
IC50 [1]: 50 nM
IC50 [2]: 30 nM
IC50 ([3]; read-out: IC50): 150 nM

COc1cc2nccc(Oc3ccc(NC(=O)N4CCN(c5ccccc5)C4=O)cc3)c2cc1OC
IC50 [1]: 50 nM
IC50 [2]: 30 nM
IC50 ([3]; read-out: IC50): 240 nM

COc1cc2ncnc(N(C)c3ccc(NC(=O)N4CCN(c5ccccc5)C4=O)cc3F)c2cc1OC
IC50 [1]: 4000 nM
IC50 [2]: > 2000 nM
IC50 ([3]; read-out: IC50): > 10000 nM
